Laboratory results reported in ChEMBL document CHEMBL3774360, “Potent multitarget FAAH-COX inhibitors: Design and structure-activity relationship studies” (Eur J Med Chem, 2016).
Active and inactive are the calls of the source. No cut-off for these calls is given here.

Assays:
[1] = target: Glucocorticoid receptor (Homo sapiens) (UniProt P04150); assay: Binding affinity to human glucocorticoid receptor at 10 uM by radioligand binding assay
[2] = target: Androgen receptor (Homo sapiens) (UniProt P10275); assay: Binding affinity to human androgen receptor at 10 uM by radioligand binding assay
[3] = target: Vasopressin V2 receptor (Homo sapiens) (UniProt P30518); assay: Binding affinity to human V2 receptor at 10 uM by radioligand binding assay
Homo sapiens [4] = species on record: Homo sapiens; assay: Binding affinity to L-type calcium channel dihydropyridine binding site (unknown origin) at 10 uM by radioligand binding assay
Homo sapiens [5] = species on record: Homo sapiens; assay: Binding affinity to ATP-sensitive potassium channel (unknown origin) at 10 uM by radioligand binding assay
Homo sapiens [6] = species on record: Homo sapiens; assay: Binding affinity to small conductance calcium-activated potassium channel (unknown origin) at 10 uM by radioligand binding assay
Homo sapiens [7] = species on record: Homo sapiens; assay: Binding affinity to sodium channel site 2 (unknown origin) at 10 uM by radioligand binding assay
[8] = target: Sodium-dependent noradrenaline transporter (Homo sapiens) (UniProt P23975); assay: Binding affinity to human norepinephrine transporter at 10 uM by radioligand binding assay
[9] = target: High affinity choline transporter 1 (Homo sapiens) (UniProt Q9GZV3); assay: Binding affinity to human CHT1 transporter at 10 uM by radioligand binding assay
[10] = target: Transient receptor potential cation channel subfamily V member 1 (Homo sapiens) (UniProt Q8NER1); assay: Agonist activity against human TRPV1 receptor at 10 uM
[11] = target: Thromboxane A2 receptor (Homo sapiens) (UniProt P21731); assay: Antagonist activity against human TP receptor at 10 uM; set-up: scale not given: the % may be the effect or the level left
[12] = target: Transient receptor potential cation channel subfamily V member 1 (Homo sapiens) (UniProt Q8NER1); assay: Antagonist activity against human TRPV1 receptor at 10 uM; set-up: scale not given: the % may be the effect or the level left
[13] = target: Secretory phospholipase A2 receptor (Homo sapiens) (UniProt Q13018); assay: Binding affinity to human sPLA2 at 10 uM
[14] = target: Prostaglandin G/H synthase 1 (Homo sapiens) (UniProt P23219); assay: Binding affinity to human COX1 at 10 uM
[15] = target: Polyunsaturated fatty acid lipoxygenase ALOX15B (Homo sapiens) (UniProt O15296); assay: Binding affinity to recombinant human 15-Lipoxygenase-2 at 10 uM
[16] = target: Nitric oxide synthase, inducible (Homo sapiens) (UniProt P35228); assay: Binding affinity to inducible NOS (unknown origin) at 10 uM
[17] = target: Dual specificity calcium/calmodulin-dependent 3',5'-cyclic nucleotide phosphodiesterase 1B (Homo sapiens) (UniProt Q01064); assay: Binding affinity to human PDE1B at 10 uM
[18] = target: cGMP-inhibited 3',5'-cyclic phosphodiesterase 3A (Homo sapiens) (UniProt Q14432); assay: Binding affinity to human PDE3A at 10 uM
[19] = target: Tyrosine-protein phosphatase non-receptor type 1 (Homo sapiens) (UniProt P18031); assay: Binding affinity to PTPN1 (unknown origin) at 10 uM
[20] = target: Protein kinase C alpha type (Homo sapiens) (UniProt P17252); assay: Binding affinity to human PKC-alpha at 10 uM
[21] = target: Amine oxidase [flavin-containing] B (Homo sapiens, UniProt P27338); assay: Binding affinity to recombinant human MAO-B at 10 uM
[22] = target: Sodium/potassium-transporting ATPase (Homo sapiens) (UniProt P05023+P14415+P05026+P50993+P54709+P13637+Q13733+P54710); assay: Binding affinity to sodium/potassium-transporting ATPase (unknown origin) at 10 uM; type: protein-complex assay
[23] = target: Histone deacetylase 11 (Homo sapiens) (UniProt Q96DB2); assay: Binding affinity to human HDAC11 at 10 uM
[24] = target: NAD-dependent protein deacetylase sirtuin-2 (Homo sapiens) (UniProt Q8IXJ6); assay: Inhibition of human sirtuin 2 at 10 uM; set-up: scale not given: the % may be the effect or the level left
[25] = target: Adenylate cyclase (Homo sapiens) (UniProt Q8NFM4+O60503+Q08828+P40145+O60266+O95622+O43306+Q08462+P51828); assay: Activation of adenylyl cyclase (unknown origin) at 10 uM; type: protein assay
Mus musculus = assay: In-vivo inhibition of FAAH in mouse plasma assessed as increase in OEA level at 1 mg/kg, iv after 1 hr by LC-MS/MS analysis; type: functional, organism-based
[26] = target: Adrenergic receptor alpha-2 (Homo sapiens) (UniProt P08913+P18825+P18089); assay: Binding affinity to alpha-2 adrenergic receptor (unknown origin) at 10 uM by radioligand binding assay
[27] = target: Beta-1 adrenergic receptor (Homo sapiens) (UniProt P08588); assay: Binding affinity to beta-1 adrenergic receptor (unknown origin) at 10 uM by radioligand binding assay
[28] = target: Beta-2 adrenergic receptor (Homo sapiens) (UniProt P07550); assay: Binding affinity to beta-2 adrenergic receptor (unknown origin) at 10 uM by radioligand binding assay
[29] = target: Type-2 angiotensin II receptor (Homo sapiens) (UniProt P50052); assay: Binding affinity to human angiotensin receptor 2 at 10 uM by radioligand binding assay
Homo sapiens [30] = species on record: Homo sapiens; assay: Binding affinity to central-type benzodiazepine receptor (unknown origin) at 10 uM by radioligand binding assay
[31] = target: Cannabinoid receptor 1 (Homo sapiens) (UniProt P21554); assay: Binding affinity to human cannabinoid receptor 1 at 10 uM by radioligand binding assay
[32] = target: Cannabinoid receptor 2 (Homo sapiens) (UniProt P34972); assay: Binding affinity to human cannabinoid receptor 2 at 10 uM by radioligand binding assay
[33] = target: Cholecystokinin receptor type A (Homo sapiens) (UniProt P32238); assay: Binding affinity to human cholecystokinin receptor type A at 10 uM by radioligand binding assay
[34] = target: Endothelin receptor type B (Homo sapiens) (UniProt P24530); assay: Binding affinity to human ETB receptor at 10 uM by radioligand binding assay
[35] = target: Leukotriene B4 receptor (Homo sapiens) (UniProt Q9NPC1+Q15722); assay: Binding affinity to human leukotriene B4 receptor at 10 uM by radioligand binding assay; type: protein assay
[36] = target: Neuromedin-K receptor (Homo sapiens) (UniProt P29371); assay: Binding affinity to human neurokinin 3 receptor at 10 uM by radioligand binding assay
[37] = target: Neuronal acetylcholine receptor; alpha4/beta2 (Homo sapiens) (UniProt P17787+P43681); assay: Binding affinity to human N neuronal alpha4beta2 receptor at 10 uM by radioligand binding assay; type: protein-complex assay
[38] = target: Peroxisome proliferator-activated receptor gamma (Homo sapiens) (UniProt P37231); assay: Binding affinity to human PPAR-gamma receptor at 10 uM by radioligand binding assay
Homo sapiens [39] = species on record: Homo sapiens; assay: Binding affinity to PCP receptor (unknown origin) at 10 uM by radioligand binding assay
[40] = target: Prostaglandin E2 receptor EP1 subtype (Homo sapiens) (UniProt P34995); assay: Binding affinity to human EP1 receptor at 10 uM by radioligand binding assay
[41] = target: Prostaglandin E2 receptor EP3 subtype (Homo sapiens) (UniProt P43115); assay: Binding affinity to human EP3 receptor at 10 uM by radioligand binding assay
Chain of Prostaglandin E2 receptor EP3 subtype (Homo sapiens) (P43115 whole entry): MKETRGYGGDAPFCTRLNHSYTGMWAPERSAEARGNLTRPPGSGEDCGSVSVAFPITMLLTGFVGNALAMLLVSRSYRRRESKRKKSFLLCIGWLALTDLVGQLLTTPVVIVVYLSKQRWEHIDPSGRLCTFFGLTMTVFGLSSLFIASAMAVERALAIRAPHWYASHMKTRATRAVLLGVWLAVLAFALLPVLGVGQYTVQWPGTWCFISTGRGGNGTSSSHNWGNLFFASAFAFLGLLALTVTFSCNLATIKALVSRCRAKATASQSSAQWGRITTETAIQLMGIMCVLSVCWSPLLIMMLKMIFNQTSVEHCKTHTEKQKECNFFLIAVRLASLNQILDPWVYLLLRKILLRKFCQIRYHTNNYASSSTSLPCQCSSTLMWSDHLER

Chain of Transient receptor potential cation channel subfamily V member 1 (Homo sapiens) (Q8NER1 whole entry): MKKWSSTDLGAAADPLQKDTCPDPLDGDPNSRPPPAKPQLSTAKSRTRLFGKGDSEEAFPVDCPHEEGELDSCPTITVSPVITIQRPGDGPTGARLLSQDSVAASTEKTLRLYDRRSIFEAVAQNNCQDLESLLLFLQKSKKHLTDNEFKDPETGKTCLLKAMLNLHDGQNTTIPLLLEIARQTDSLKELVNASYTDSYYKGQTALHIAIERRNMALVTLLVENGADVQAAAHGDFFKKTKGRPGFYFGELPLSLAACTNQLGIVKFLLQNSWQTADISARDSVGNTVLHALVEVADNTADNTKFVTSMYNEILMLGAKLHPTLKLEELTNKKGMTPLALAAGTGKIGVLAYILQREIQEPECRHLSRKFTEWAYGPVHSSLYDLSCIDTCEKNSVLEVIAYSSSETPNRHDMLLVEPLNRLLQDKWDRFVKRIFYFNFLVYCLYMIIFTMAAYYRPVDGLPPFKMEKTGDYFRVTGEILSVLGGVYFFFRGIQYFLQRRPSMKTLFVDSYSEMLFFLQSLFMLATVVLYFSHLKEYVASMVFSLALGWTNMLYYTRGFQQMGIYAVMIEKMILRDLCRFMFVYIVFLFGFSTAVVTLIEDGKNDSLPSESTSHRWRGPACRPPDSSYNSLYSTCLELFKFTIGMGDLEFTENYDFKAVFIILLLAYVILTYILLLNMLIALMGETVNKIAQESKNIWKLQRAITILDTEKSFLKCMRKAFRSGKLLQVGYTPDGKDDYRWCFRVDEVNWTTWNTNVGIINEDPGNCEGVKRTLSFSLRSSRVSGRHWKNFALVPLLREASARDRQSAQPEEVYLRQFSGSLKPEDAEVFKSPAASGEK
Chain of Peroxisome proliferator-activated receptor gamma (Homo sapiens) (P37231 whole entry): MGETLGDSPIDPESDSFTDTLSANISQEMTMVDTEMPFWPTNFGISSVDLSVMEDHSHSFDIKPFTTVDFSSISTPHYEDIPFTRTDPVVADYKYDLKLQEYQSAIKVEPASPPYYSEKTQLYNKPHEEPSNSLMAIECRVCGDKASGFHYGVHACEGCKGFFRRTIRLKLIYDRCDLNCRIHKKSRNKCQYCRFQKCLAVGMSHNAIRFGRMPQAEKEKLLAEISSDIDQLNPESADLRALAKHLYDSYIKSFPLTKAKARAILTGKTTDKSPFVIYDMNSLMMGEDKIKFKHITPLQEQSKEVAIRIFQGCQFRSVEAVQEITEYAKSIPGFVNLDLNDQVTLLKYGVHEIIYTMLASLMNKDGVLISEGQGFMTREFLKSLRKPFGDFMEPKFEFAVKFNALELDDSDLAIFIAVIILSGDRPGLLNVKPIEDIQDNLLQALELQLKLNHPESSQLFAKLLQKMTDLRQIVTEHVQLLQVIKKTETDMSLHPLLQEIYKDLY
Chain of Prostaglandin G/H synthase 1 (Homo sapiens) (P23219 whole entry): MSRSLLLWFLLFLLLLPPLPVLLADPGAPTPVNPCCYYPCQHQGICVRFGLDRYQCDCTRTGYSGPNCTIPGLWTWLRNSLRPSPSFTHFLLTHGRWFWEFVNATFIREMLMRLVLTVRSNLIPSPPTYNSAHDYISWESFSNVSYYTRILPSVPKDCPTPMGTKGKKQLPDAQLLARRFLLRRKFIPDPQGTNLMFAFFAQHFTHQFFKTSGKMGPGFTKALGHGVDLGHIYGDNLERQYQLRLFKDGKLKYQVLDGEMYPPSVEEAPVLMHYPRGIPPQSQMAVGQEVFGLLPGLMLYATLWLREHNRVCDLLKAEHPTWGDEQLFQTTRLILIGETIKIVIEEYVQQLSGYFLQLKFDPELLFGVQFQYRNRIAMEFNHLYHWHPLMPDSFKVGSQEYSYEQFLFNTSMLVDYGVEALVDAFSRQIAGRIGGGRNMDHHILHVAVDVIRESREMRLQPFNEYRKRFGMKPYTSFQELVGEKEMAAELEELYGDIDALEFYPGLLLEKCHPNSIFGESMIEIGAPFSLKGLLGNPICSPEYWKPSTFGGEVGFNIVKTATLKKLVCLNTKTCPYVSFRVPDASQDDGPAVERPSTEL
Chain of Nitric oxide synthase, inducible (Homo sapiens) (P35228 whole entry): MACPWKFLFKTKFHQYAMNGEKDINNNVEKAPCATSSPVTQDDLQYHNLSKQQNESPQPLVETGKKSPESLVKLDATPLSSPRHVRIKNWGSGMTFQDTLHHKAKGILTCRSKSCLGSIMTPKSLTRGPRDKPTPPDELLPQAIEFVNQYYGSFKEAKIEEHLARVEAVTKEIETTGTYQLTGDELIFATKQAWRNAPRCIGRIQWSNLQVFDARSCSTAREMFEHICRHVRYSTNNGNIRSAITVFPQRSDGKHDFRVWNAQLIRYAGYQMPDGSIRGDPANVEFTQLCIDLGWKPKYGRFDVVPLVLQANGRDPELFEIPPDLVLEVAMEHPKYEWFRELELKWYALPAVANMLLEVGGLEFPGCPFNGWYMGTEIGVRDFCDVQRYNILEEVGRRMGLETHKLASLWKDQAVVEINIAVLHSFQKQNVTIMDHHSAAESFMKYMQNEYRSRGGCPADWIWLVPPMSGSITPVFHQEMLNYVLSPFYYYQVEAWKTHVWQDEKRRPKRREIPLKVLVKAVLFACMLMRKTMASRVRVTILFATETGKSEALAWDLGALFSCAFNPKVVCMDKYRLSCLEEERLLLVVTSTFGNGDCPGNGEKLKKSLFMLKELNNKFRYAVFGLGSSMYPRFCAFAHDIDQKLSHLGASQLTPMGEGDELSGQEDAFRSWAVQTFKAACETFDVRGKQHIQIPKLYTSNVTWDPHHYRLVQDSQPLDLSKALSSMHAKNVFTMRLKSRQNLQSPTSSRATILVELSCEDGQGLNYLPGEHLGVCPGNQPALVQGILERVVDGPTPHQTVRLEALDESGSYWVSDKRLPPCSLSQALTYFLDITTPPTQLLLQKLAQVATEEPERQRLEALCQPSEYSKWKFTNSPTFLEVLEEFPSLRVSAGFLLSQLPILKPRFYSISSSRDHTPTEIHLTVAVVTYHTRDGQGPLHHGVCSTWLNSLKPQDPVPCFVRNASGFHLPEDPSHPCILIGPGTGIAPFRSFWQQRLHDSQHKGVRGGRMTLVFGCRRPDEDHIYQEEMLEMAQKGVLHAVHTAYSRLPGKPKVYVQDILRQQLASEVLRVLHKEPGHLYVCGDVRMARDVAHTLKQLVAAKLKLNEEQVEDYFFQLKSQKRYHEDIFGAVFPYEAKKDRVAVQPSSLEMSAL
Chain of Cannabinoid receptor 2 (Homo sapiens) (P34972 whole entry): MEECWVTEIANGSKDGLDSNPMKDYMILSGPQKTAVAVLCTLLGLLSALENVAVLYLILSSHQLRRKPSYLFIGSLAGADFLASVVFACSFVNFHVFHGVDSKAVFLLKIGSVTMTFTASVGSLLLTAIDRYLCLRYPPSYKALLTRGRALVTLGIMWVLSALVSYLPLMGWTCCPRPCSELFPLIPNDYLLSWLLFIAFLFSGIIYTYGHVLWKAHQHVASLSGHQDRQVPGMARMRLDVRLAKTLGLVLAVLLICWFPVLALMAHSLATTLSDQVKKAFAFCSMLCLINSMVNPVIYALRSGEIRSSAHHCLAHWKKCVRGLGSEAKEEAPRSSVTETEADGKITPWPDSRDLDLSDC
Chain of Cholecystokinin receptor type A (Homo sapiens) (P32238 whole entry): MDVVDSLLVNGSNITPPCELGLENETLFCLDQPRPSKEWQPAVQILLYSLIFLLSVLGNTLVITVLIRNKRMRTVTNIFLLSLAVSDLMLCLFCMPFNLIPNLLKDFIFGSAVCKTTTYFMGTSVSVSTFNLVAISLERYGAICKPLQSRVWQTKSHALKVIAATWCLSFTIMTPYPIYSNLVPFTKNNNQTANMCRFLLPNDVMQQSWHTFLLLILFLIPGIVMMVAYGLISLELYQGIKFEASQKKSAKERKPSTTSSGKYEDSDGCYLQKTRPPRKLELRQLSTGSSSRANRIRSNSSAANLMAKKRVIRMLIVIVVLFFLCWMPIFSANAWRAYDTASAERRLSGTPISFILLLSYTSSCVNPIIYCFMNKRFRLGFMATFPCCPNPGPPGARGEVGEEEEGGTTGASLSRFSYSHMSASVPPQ

With CCCCCCNC(=O)Oc1cccc(-c2ccc([C@H](C)C(=O)O)cc2F)c1 the Activity [1] was 2.3%, the Activity [2] was 3.7% and the Activity [3] was 4.2%. It also gave an Activity (Homo sapiens [4]) of -19.3%, an Activity (Homo sapiens [5]) of 10.1% and an Activity (Homo sapiens [6]) of -10.6%. For the same compound, the Activity (Homo sapiens [7]) was -0.5%, the Activity [8] was 7% and the Activity [9] was -18.6%. The Activity [10] was -3.2%, the Activity [11] was 2.9% and the Activity [12] was 17.9%. It also gave an Activity [13] of 0.4%, an Activity [14] of 99.2% and an Activity [15] of -6.4%. The Activity [16] was -5.8%, the Activity [17] was 28.3% and the Activity [18] was 0.3%. It also gave an Activity [19] of -5.3%, an Activity [20] of -26.1% and an Activity [21] of -15.4%. For the same compound, the Activity [22] was 0.9%, the Activity [23] was -52% and the Activity [24] was 1.3%. The Activity [25] was 0.4%, the inhibition (Mus musculus) was “Active” and the Activity [26] was -13.6%. It also gave an Activity [27] of 5.2%, an Activity [28] of -7.5% and an Activity [29] of 12.4%. It also gave an Activity (Homo sapiens [30]) of -51.5%, an Activity [31] of 38.1% and an Activity [32] of -3%. For the same compound, the Activity [33] was 10.8%, the Activity [34] was -17.5% and the Activity [35] was 1.2%. For the same compound, the Activity [36] was 2.8%, the Activity [37] was -5.6% and the Activity [38] was 80.1%. It also gave an Activity (Homo sapiens [39]) of -10.7%, an Activity [40] of -8.8% and an Activity [41] of 10.9%.
